Source: ChEMBL document CHEMBL4184249, “Structural development of tetrachlorophthalimides as liver X receptor β (LXRβ)-selective agonists with improved aqueous solubility” (Bioorg Med Chem Lett, 2018)
In brackets after ≈: the same amount, converted by molar mass. Activity calls are given as the source filed them. The rule behind the calls is not given here.

Assays:
[1] = target: T1, Oxysterols receptor LXR-alpha (Homo sapiens) (UniProt Q13133); experiment: Agonist activity at human LXRalpha expressed in HEK293 cells co-expressing CMX-beta-galactosidase at 30 uM incubated for 16 hrs by luciferase reporter gene assay; assay type: cell-based
T1 sequence (whole entry): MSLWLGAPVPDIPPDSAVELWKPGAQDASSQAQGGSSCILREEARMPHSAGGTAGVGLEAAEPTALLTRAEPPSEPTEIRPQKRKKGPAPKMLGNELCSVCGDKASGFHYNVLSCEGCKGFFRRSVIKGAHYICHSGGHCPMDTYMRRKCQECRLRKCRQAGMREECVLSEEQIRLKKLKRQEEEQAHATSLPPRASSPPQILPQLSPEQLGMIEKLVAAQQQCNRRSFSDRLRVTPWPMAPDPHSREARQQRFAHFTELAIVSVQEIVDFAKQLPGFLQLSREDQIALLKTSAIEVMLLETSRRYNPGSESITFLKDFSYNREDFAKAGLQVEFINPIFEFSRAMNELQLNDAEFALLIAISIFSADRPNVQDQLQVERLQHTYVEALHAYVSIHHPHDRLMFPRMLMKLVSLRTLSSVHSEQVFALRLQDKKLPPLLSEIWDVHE

[2] = target: T2, Oxysterols receptor LXR-beta (Homo sapiens, UniProt P55055); experiment: Agonist activity at human LXRbeta expressed in HEK293 cells co-expressing CMX-beta-galactosidase incubated for 16 hrs by luciferase reporter gene assay; assay type: cell-based
T2 sequence (P55055 whole entry): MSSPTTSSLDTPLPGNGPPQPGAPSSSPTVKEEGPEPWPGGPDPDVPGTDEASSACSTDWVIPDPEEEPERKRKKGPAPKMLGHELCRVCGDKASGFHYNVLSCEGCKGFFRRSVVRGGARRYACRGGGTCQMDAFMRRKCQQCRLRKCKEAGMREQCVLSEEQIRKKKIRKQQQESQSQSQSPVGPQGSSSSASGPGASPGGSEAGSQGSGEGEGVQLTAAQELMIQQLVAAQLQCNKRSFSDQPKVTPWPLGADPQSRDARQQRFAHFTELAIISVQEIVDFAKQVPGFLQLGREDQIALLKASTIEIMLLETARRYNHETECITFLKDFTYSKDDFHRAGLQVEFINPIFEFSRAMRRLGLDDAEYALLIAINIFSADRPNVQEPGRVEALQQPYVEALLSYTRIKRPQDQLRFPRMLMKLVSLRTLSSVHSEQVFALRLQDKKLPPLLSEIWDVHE

[3] = target: T3, Oxysterols receptor LXR-beta (Homo sapiens) (UniProt P55055); experiment: Agonist activity at human LXRbeta expressed in HEK293 cells co-expressing CMX-beta-galactosidase incubated for 16 hrs by luciferase reporter gene assay relative to T0901317; assay type: cell-based
T3 sequence (whole entry): T2 sequence (P55055 whole entry)

[4] = target: T4, Oxysterols receptor LXR-alpha (Mus musculus) (UniProt Q9Z0Y9); experiment: Agonist activity at mouse LXRalpha expressed in HEK293 cells co-expressing CMX-beta-galactosidase at 30 uM incubated for 16 hrs by luciferase reporter gene assay; assay type: cell-based
T4 sequence (whole entry): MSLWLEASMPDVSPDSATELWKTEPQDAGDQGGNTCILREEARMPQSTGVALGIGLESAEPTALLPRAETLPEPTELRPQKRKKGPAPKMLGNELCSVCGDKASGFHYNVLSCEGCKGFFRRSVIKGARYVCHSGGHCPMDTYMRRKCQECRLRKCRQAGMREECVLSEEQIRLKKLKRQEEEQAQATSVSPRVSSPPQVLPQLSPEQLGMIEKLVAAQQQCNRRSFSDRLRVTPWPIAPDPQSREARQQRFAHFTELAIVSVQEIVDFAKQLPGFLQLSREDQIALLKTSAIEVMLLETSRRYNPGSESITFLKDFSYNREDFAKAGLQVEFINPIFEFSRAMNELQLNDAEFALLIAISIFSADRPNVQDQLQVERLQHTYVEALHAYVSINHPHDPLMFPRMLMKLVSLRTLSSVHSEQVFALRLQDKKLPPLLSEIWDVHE

[5] = target: T5, Oxysterols receptor LXR-beta (Mus musculus, UniProt Q60644); experiment: Agonist activity at mouse LXRbeta expressed in HEK293 cells co-expressing CMX-beta-galactosidase incubated for 16 hrs by luciferase reporter gene assay; assay type: cell-based
T5 sequence (Q60644 whole entry): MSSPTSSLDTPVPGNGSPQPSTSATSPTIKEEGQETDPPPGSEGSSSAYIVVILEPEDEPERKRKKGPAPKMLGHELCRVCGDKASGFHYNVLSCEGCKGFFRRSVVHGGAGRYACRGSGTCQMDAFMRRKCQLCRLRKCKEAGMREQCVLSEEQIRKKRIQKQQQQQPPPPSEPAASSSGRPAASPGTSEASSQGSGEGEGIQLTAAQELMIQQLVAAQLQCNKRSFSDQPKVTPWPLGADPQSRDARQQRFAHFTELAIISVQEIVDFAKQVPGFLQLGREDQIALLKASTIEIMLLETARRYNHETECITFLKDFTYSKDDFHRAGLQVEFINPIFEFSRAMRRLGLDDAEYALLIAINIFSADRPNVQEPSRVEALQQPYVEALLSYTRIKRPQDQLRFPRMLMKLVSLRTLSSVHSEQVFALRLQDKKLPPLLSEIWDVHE

[6] = target: T6, Oxysterols receptor LXR-beta (Mus musculus) (UniProt Q60644); experiment: Agonist activity at mouse LXRbeta expressed in HEK293 cells co-expressing CMX-beta-galactosidase incubated for 16 hrs by luciferase reporter gene assay relative to T0901317; assay type: cell-based
T6 sequence (whole entry): T5 sequence (Q60644 whole entry)

[7] = Aqueous solubility of the compound in EtOH: 1/15 M phosphate buffer at pH 7.4 1:1 by HPLC method; assay type: physicochemical
[8] = target: T3, Oxysterols receptor LXR-beta (Homo sapiens); experiment: Agonist activity at LXRbeta in human THP1 cells assessed as increase in ABCA1 mRNA expression at 1 uM by real-time quantitative RT-PCR method; assay type: cell-based
[9] = target: T3, Oxysterols receptor LXR-beta (Homo sapiens); experiment: Agonist activity at human LXRbeta expressed in HEK293 cells co-expressing CMX-beta-galactosidase at 30 uM incubated for 16 hrs by luciferase reporter gene assay; assay type: cell-based
[10] = target: T3, Oxysterols receptor LXR-beta (Homo sapiens); experiment: Agonist activity at human LXRbeta expressed in HEK293 cells co-expressing CMX-beta-galactosidase incubated for 16 hrs at 30 uM by luciferase reporter gene assay relative to T0901317; assay type: cell-based

Structure (SMILES)	Activity [1]	EC50 [2] [µM]	Efficacy [3] [%]	Activity [4]	EC50 [5] [µM]	Efficacy [6] [%]	solubility [7] [ng/mL]	Activity [8]	Activity [9]	Efficacy [10] [%]
O=C1c2c(Cl)c(Cl)c(Cl)c(Cl)c2C(=O)N1c1ccccc1CCc1ccccc1	inactive	4.98	117							
O=C1c2c(Cl)c(Cl)c(Cl)c(Cl)c2C(=O)N1c1ccccc1/C=C/c1ccccc1	inactive	0.27	143	inactive	0.3	26	3.6 (≈ 7.77 nM)	Active		
O=C1c2c(Cl)c(Cl)c(Cl)c(Cl)c2C(=O)N1c1ccccc1/C=C/c1cccnc1	inactive	4.96	141							
O=C1c2c(Cl)c(Cl)c(Cl)c(Cl)c2C(=O)N1c1ccccc1/C=C/c1ccsc1	inactive	0.915	133	inactive	0.82	23				
O=C1c2c(Cl)c(Cl)c(Cl)c(Cl)c2C(=O)N1c1cccc2ccccc12	inactive								inactive	
O=C1c2c(Cl)c(Cl)c(Cl)c(Cl)c2C(=O)N1c1ccccc1Cc1ccccc1	inactive	8	109	inactive						
O=C1c2c(Cl)c(Cl)c(Cl)c(Cl)c2C(=O)N1c1ccccc1/C=C/c1ccncc1	inactive	> 10								35
O=C1c2c(Cl)c(Cl)c(Cl)c(Cl)c2C(=O)N1c1ccccc1/C=C/c1ccco1	inactive	4.67	167							
O=C1c2c(Cl)c(Cl)c(Cl)c(Cl)c2C(=O)N1c1ccccc1-c1ccccc1	inactive	1.73	153							
O=C1c2c(Cl)c(Cl)c(Cl)c(Cl)c2C(=O)N1c1ccccc1Oc1ccccc1	inactive	8.98	99	inactive						
O=C1c2c(Cl)c(Cl)c(Cl)c(Cl)c2C(=O)N1c1ccccc1/C=C\c1ccccc1	inactive	> 10								104
O=C1c2c(Cl)c(Cl)c(Cl)c(Cl)c2C(=O)N1c1ccccc1/C=C/c1nccs1	inactive	3.61	151	inactive	2.93	22				
O=C1c2c(Cl)c(Cl)c(Cl)c(Cl)c2C(=O)N1c1ccccc1/C=C/c1ccccn1	inactive	4.77	148							
